Test systems include SNB-75 CNS; U251 CNS; COLO 205 colon; SF-539 CNS; HCT-15 colon; HT29 colon; SK-MEL-28 melanoma; OVCAR-4 ovarian; RPMI-8226 leukemia; SK-MEL-5 melanoma.
Assay in all cases: NCI-60 cell line screen, 48 h

Several values for one entry are separate records, joined by “and”; a condition that tells them apart may be missing. Equal values may be shown once.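 96-well plates; 48 h exposure; 5 concentrations. Endpoints by linear interpolation between flanking doses. Not reached: highest tested concentration assigned. GI50: concentration for 50% inhibition of growth. TGI: total growth inhibition.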

For `Cn1cc(-c2ccc3c4ccccc4n(C)c3c2)c2ccccc21`, the TGI in the assay on SNB-75 CNS, in the assay with U251 CNS, in the assay on COLO 205 colon, in the assay with SF-539 CNS, in the assay on HCT-15 colon and in the assay on HT29 colon was > 100 µM each time. Further, the TGI in the assay with SK-MEL-28 melanoma, in the assay with OVCAR-4 ovarian, in the assay with RPMI-8226 leukemia and in the assay on SK-MEL-5 melanoma was > 100 µM throughout.

`COc1cc(/C=C/C(=O)c2c(C)n([O-])c3ccccc3[n+]2=O)cc(OC)c1OC`: the GI50 with SNB-75 CNS was 12.5 µM; in the assay with U251 CNS, 5.14 µM; in the assay on COLO 205 colon it was 9.08 µM; in the assay on SF-539 CNS it was 11.5 µM; in the assay on HCT-15 colon, 4 µM; in the assay with HT29 colon, 10.7 µM. The GI50 in the assay with SK-MEL-28 melanoma is 11.2 µM; in the assay with OVCAR-4 ovarian it was 10.8 µM; with RPMI-8226 leukemia, 3.58 µM; in the assay with SK-MEL-5 melanoma, 3.62 µM. Further, the TGI was found to be 30.8 µM with SNB-75 CNS; 17.2 µM with U251 CNS; 24.9 µM with COLO 205 colon; 23.7 µM in the assay with SF-539 CNS; 15.6 µM in the assay with HCT-15 colon; 22.9 µM with HT29 colon. Besides, the TGI was 28.9 µM in the assay on SK-MEL-28 melanoma, > 100 µM with OVCAR-4 ovarian, 22.8 µM in the assay with RPMI-8226 leukemia and 13.4 µM with SK-MEL-5 melanoma.

As for `O=C1/C(=C/c2ccc(F)cc2)COc2ccc(O)c(O)c21`, the GI50 in the assay with SNB-75 CNS is 1.71 µM; with U251 CNS it was 1.46 µM; in the assay with COLO 205 colon, 2.76 µM; with SF-539 CNS it was 1.28 µM; in the assay on HCT-15 colon it was 0.755 µM; with HT29 colon, 3.37 µM. In addition, the GI50 is 2.27 µM in the assay with SK-MEL-28 melanoma, 2.77 µM in the assay with OVCAR-4 ovarian, 0.26 µM in the assay with RPMI-8226 leukemia and 3.16 µM with SK-MEL-5 melanoma. In addition, the TGI in the assay on SNB-75 CNS was > 100 µM; in the assay on U251 CNS, 4.19 µM; in the assay with COLO 205 colon it was 10.3 µM; in the assay with SF-539 CNS, 2.7 µM; with HCT-15 colon it was 5.85 µM; with HT29 colon it was > 100 µM. For the same compound, the TGI was 5.91 µM in the assay on SK-MEL-28 melanoma, > 100 µM in the assay on OVCAR-4 ovarian, 0.714 µM with RPMI-8226 leukemia and 11.7 µM in the assay on SK-MEL-5 melanoma.

As to `NC(CSC(c1ccccc1)(c1ccccc1)c1ccccc1)C(=O)O` (stereo not drawn), the GI50 in the assay on SNB-75 CNS was 2.34 µM; with U251 CNS, 1.11 µM and 0.485 µM; in the assay on COLO 205 colon it was 3.27 µM and 1.34 µM; with SF-539 CNS, 0.874 µM and 0.459 µM; in the assay with HCT-15 colon, 2.31 µM and 1.79 µM; in the assay with HT29 colon, 3.71 µM and 3.28 µM. For the same compound, the GI50 is 12.2 µM and 4.46 µM with SK-MEL-28 melanoma; 11.6 µM and 11.2 µM in the assay on OVCAR-4 ovarian; 3.53 µM and 0.501 µM in the assay on RPMI-8226 leukemia; 0.601 µM and 0.41 µM in the assay with SK-MEL-5 melanoma. Moreover, the TGI in the assay on SNB-75 CNS was 9.45 µM and 50.6 µM and 29.2 µM; in the assay on U251 CNS, 16.9 µM and 32.4 µM and 43.4 µM; in the assay on SF-539 CNS, 10.6 µM and 3.01 µM and 3.26 µM; in the assay on HCT-15 colon it was 51.1 µM and > 100 µM; in the assay with HT29 colon it was 27.3 µM and 14.6 µM; in the assay with SK-MEL-28 melanoma it was 110 µM and > 100 µM. Besides, the TGI was 61 µM and > 100 µM in the assay on OVCAR-4 ovarian; 37.3 µM and 22.4 µM and 20.7 µM with RPMI-8226 leukemia; 51.1 µM and 42.5 µM in the assay with SK-MEL-5 melanoma.

As for `O=C(CSSCC(=O)c1ccc(Cl)cc1)c1ccc(Cl)cc1`, the GI50 is 6.62 µM with SNB-75 CNS; 4.16 µM with U251 CNS; 14.2 µM in the assay on COLO 205 colon; 7.36 µM with SF-539 CNS; 6.73 µM in the assay with HCT-15 colon; 3.42 µM with HT29 colon. Also, the GI50 in the assay on SK-MEL-28 melanoma is 5.83 µM; in the assay on OVCAR-4 ovarian, 18.3 µM; in the assay on RPMI-8226 leukemia, 3.2 µM; with SK-MEL-5 melanoma it was 3.32 µM. The TGI is 21.4 µM with SNB-75 CNS; 17.5 µM with U251 CNS; 29.8 µM in the assay on COLO 205 colon; 23.8 µM in the assay on SF-539 CNS; 28.6 µM with HCT-15 colon; 17 µM in the assay with HT29 colon. Moreover, the TGI stood at 22.5 µM with SK-MEL-28 melanoma, 93.9 µM in the assay with OVCAR-4 ovarian, 12.3 µM with RPMI-8226 leukemia and 10.5 µM in the assay on SK-MEL-5 melanoma.

In the case of `Cc1cccc(CNc2c3ccccc3nc3ccccc23)c1`, the GI50 is 1.08 µM in the assay on SNB-75 CNS; 1.96 µM in the assay on U251 CNS; 1.69 µM with COLO 205 colon; 1.67 µM with SF-539 CNS; 1.83 µM in the assay on HCT-15 colon; 1.7 µM in the assay on HT29 colon. The GI50 with SK-MEL-28 melanoma is 1.89 µM; in the assay on OVCAR-4 ovarian, 1.74 µM; in the assay on RPMI-8226 leukemia it was 1.87 µM; in the assay on SK-MEL-5 melanoma, 1.7 µM. Besides, the TGI in the assay with SNB-75 CNS came out at 8.32 µM; in the assay on U251 CNS, 5.54 µM; in the assay with COLO 205 colon, 3.89 µM; with SF-539 CNS it was 3.14 µM; in the assay on HCT-15 colon it was 4.59 µM; in the assay with HT29 colon it was 10.1 µM. The TGI in the assay with SK-MEL-28 melanoma worked out at 4.07 µM; with OVCAR-4 ovarian it was 5.59 µM; in the assay with RPMI-8226 leukemia it was 4.94 µM; in the assay with SK-MEL-5 melanoma it was 3.14 µM.

`O=C1OC(c2ccc([N+](=O)[O-])cc2)=N/C1=C\c1ccc(Cl)cc1`: the TGI in the assay with SNB-75 CNS, with U251 CNS, in the assay with COLO 205 colon, with SF-539 CNS, with HCT-15 colon and in the assay with HT29 colon was > 100 µM each time. Besides, the TGI in the assay with SK-MEL-28 melanoma, in the assay with OVCAR-4 ovarian, with RPMI-8226 leukemia and in the assay with SK-MEL-5 melanoma was > 100 µM in each case.

For `Cc1cc(NS(=O)(=O)c2ccc(NC(=O)c3ccc(Cl)c4c(Nc5ccc(S(=O)(=O)Nc6cc(C)on6)cc5)c5ccccc5nc34)cc2)no1`, the TGI in the assay with SNB-75 CNS turned out to be 24.5 µM; in the assay with U251 CNS, 32.8 µM; in the assay on COLO 205 colon, 41.4 µM; in the assay with SF-539 CNS it was 32.3 µM; in the assay on HCT-15 colon, 43 µM; in the assay with HT29 colon, 41.6 µM. The TGI was determined as 81.8 µM in the assay on OVCAR-4 ovarian, 72.7 µM in the assay on RPMI-8226 leukemia and 55.4 µM with SK-MEL-5 melanoma.

As to `CCN(Cc1cc(Cl)cc(C)c1O)Cc1c(O)ccc2ccccc12`, the TGI with SNB-75 CNS amounted to 24.1 µM; in the assay on U251 CNS, 31.7 µM; in the assay on COLO 205 colon, 42 µM; in the assay on SF-539 CNS, 30 µM; in the assay with HCT-15 colon, 30.5 µM; in the assay with HT29 colon it was 28.1 µM. Moreover, the TGI is 34.8 µM in the assay with SK-MEL-28 melanoma, 31.6 µM in the assay on OVCAR-4 ovarian, > 100 µM with RPMI-8226 leukemia and 29.4 µM in the assay with SK-MEL-5 melanoma.

The values above are taken from PubChem BioAssay (NCI).
